Read-outs that look alike come from different tables or passages of the source.
Columns and labels:
[1] = test system: IL-4-induced STAT6 phosphorylation, Ramos cells; assay: IL-4-induced STAT6 phosphorylation in Ramos cells; assay type: cell-based; conditions: Homo sapiens, IL-4 stimulation, read-out: pSTAT6 (IC50)
Protocol: For the determination of IL-4-induced STAT6 phosphorylation, Ramos cells (ATCC) are plated in 96 well plates at 1.0×10^4 cells per well 10% FBS RPMI-1640 and incubated at 37° C., 5% CO2 for 3 hours. Cells were incubated with compounds for 30 minutes prior to stimulation with interleukin-4 (10 ng/ml final) for an additional 30 minutes. Cells are then fixed in 2% paraformaldehyde for 45 minutes and incubated in ice-cold methanol for 30 minutes. After washing in PBS, cells are incubated with rabbit anti-phospho-STAT6 (Y641) (Cell Signaling Technologies, 1:1000 in antibody dilution solution) primary antibody overnight at 4° C. Goat anti-rabbit IgG Alexa 488 (Invitrogen, 1:1,000 dilution in PBS) secondary antibody is added for 90 minutes prior to PBS washes. Cells are counted following incubation in a 7.5 uM propidium iodide, 100 µg/ml RNaseA, PBS solution for 60 minutes in the dark. Plates are read on an Acumen X3 instrument (TPP Labtech).
(§1) Percent inhibition is calculated using the following formula: Inhibition (%)=100−((inhibitor treatment−cell)/(stimulator−cell))×100
(§2) where: Inhibitor treatment represents cell activation percentage of wells treated by both compound and stimulator (IL-6, IL-3 or IL-4); Cell represents the cell activation percentage of wells treated by neither compound nor stimulator (IL-6, IL-3 or IL-4). Stimulator represents the cell activation percentage of wells treated by stimulator (IL-6, IL-3 or IL-4) only.

[2] = test system: IL-3-induced STAT5 phosphorylation, TF-1 cells; assay: IL-3-induced STAT5 phosphorylation in TF-1 cells; assay type: cell-based, human; conditions: IL-3 stimulation, read-out: pSTAT5 (IC50)
Protocol: For the determination of IL-3-induced STAT5 phosphorylation, TF-1 cells (ATCC) are plated in 96 well plates at 1×10^4 cells per well in 10% FBS RPMI-1640 media at 37° C., 5% CO2 for 3 hours. Cells were incubated in the presence or absence of various concentrations of diluted compound for 30 min at 37° C., 5% CO2. Cells were stimulated by adding 10 ng/ml human recombinant IL-3 to each well for 30 minutes at 37° C., 5% CO2. Cells are then fixed in 2% paraformaldehyde for 45 minutes at room temperature and incubated in ice-cold methanol for 30 minutes. After washing in PBS, cells are incubated with rabbit anti-phospho-STAT5 (Y694) (Cell Signaling Technologies, 1:1000 in antibody dilution solution) primary antibody overnight at 4° C. Goat anti-rabbit IgG Alexa 488 (Invitrogen, 1:1,000 dilution in PBS) secondary antibody is added for 90 minutes prior to PBS washes. Cells are counted following incubation in a 7.5 uM propidium iodide, 100 µg/ml RNaseA, PBS solution for 60 minutes in the dark. Plates are read on an Acumen X3 instrument (TPP Labtech).
as §1, §2

[3] = target: Recombinant human JAK1 catalytic domain (Homo sapiens (Human), UniProt P23458); assay: JAK1 kinase assay (Z'-LYTE Tyr 6 Peptide); assay type: biochemical; conditions: read-out: inhibition percentage (IR %)
Protocol: JAK1/2/3 kinase assay are performed in vitro using Kit-Tyr 6 Peptide (Invitrogen, Cat. No. PV4122). TYK2 kinase assay are performed in vitro using Z′-LYTE™ Kinase Assay Kit-Tyr 3 Peptide (Invitrogen, Cat. No. PV3192). […] All compounds are initially tested at 8 different concentrations (1 μM down to 0.0003 μM) using a 1:3 serial dilution scheme.

[4] = test system: IL-6-induced STAT3 phosphorylation, HepG2 cells; assay: IL-6-induced STAT3 phosphorylation in HepG2 cells; assay type: cell-based, human; conditions: IL-6 stimulation, read-out: pSTAT3 (IC50)
Protocol: For the determination of IL-6-induced STAT3 phosphorylation, HepG2 cells (SIBS) are seeded in 96 well plates at […] cells per well in Serum Free DMEM media overnight and incubated in the presence or absence of various concentrations of diluted compound for 30 min at 37° C., 5% CO2. Cells were stimulated by adding 10 ng/ml human recombinant IL-6 to each well for 15 minutes at 37° C., 5% CO2. Cells are then fixed in 2% paraformaldehyde for 45 minutes at room temperature and incubated in ice-cold methanol for 30 minutes. After washing in PBS, cells are incubated with rabbit anti-phospho-STAT3 (Y705) (Cell Signaling Technologies, 1:1000 in antibody dilution solution) primary antibody overnight at 4° C. Goat anti-rabbit IgG Alexa 488 (Invitrogen, 1:1,000 dilution in PBS) secondary antibody is added for 90 minutes prior to PBS washes. Cells are counted following incubation in a 7.5 uM propidium iodide, 100 μg/ml RNaseA, PBS solution for 60 minutes in the dark. Plates are read on an Acumen X3 instrument (TPP Labtech).
as §1, §2

[5] = JAK1 kinase assay, 0.3 uM concentration

Sequence of Recombinant human JAK1 catalytic domain (P23458 875-1153): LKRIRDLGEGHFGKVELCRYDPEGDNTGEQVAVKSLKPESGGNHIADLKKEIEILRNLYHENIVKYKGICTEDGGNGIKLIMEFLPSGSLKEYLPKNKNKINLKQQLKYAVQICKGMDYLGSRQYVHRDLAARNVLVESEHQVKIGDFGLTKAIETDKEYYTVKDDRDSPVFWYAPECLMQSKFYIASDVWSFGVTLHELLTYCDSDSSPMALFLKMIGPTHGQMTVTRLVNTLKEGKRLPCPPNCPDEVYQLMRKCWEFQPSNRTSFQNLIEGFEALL

IC50 [1] [nM]	IC50 ([2]; Homo sapiens) [nM]	inhibition at 0.3 µM [3, 5] [%]	IC50 ([4]; Homo sapiens) [nM]	SMILES	inhibition at 0.3 µM [3] [%]	IC50 [2] [nM]	IC50 [4] [nM]
385	857	50 to 100	337	CN(c1ccc(S(N)(=O)=O)cn1)[C@@H]1CCN(c2ncnc3[nH]ccc23)C1 [Compound 234]			
	1680	50 to 100	9	CN(c1ccc(C#N)c(F)c1)[C@@H]1CCN(c2ncnc3[nH]ccc23)C1 [Compound 105]			
1150	1490	50 to 100	824	CNS(=O)(=O)N(C)[C@@H]1CCN(c2ncnc3[nH]ccc23)C1 [Compound 47]			
				CN(c1ccc(C(=O)Nc2nccs2)cn1)[C@@H]1CCN(c2ncnc3[nH]ccc23)C1 [Compound 199]		7550	50
180	693	50 to 100	23.9	CN(c1ccc(C(=O)N[C@@H]2c3ccccc3C[C@H]2O)cc1F)[C@@H]1CCN(c2ncnc3[nH]ccc23)C1 [Compound 206]			

SMILES	IC50 [1] [nM]	IC50 ([2]; Homo sapiens) [nM]	inhibition at 0.3 µM [3, 5] [%]	IC50 ([4]; Homo sapiens) [nM]	inhibition at 0.3 µM [3] [%]	IC50 [2] [nM]	IC50 [4] [nM]
CN(c1ncc(C#N)cn1)[C@@H]1CCN(c2ncnc3[nH]ccc23)C1 [Compound 142, (R)-2-((1-(7H-pyrrolo[2,3-d]pyrimidin-4-yl)pyrrolidin-3-yl)(methyl)amino)pyrimidine-5-carbonitrile]	336	3070		65	20 to 50		

From patent US10111875B2, “Pyrrolopyrimidine compounds and uses thereof” (HUTCHISON MEDIPHARMA LIMITED, priority 2010, dated 2018)
